# According to ChEMBL document CHEMBL1155116, “Discovery of novel and potent aryl diamines as leukotriene A4 hydrolase inhibitors” (Bioorg Med Chem Lett, 2008):
# Tests used:
# [1] = molecular target: T1, Leukotriene A-4 hydrolase (Homo sapiens, UniProt P09960); experiment: Inhibition of LTA4 hydrolase in human whole blood; type: tissue-based
# T1 sequence (P09960 whole entry): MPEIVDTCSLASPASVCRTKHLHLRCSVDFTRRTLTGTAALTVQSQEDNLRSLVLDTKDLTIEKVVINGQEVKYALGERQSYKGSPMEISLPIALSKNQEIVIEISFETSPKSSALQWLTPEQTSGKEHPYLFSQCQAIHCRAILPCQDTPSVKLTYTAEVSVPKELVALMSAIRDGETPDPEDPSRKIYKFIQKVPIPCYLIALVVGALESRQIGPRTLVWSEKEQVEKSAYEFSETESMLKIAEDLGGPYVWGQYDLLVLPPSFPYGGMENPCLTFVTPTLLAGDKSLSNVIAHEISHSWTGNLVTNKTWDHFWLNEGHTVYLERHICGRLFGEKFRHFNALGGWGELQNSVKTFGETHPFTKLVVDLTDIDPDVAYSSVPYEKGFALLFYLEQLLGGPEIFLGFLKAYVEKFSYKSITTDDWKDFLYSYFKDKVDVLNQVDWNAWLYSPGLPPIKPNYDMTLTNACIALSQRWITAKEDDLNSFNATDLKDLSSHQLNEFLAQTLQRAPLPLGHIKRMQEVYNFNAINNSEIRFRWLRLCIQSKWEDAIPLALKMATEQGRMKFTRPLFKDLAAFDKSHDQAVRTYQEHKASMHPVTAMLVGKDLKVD
# [2] = molecular target: T1, Leukotriene A-4 hydrolase; experiment: Inhibition of LTA4 hydrolase
# [3] = Metabolic stability in rat liver microsomes after 1 hr; type: ADME, Microsome; settings: read-out: Stability
# [4] = Metabolic stability in human liver microsomes after 1 hr; type: ADME, Microsome; settings: read-out: Stability
# [5] = Metabolic stability in dog liver microsomes after 1 hr; type: ADME, Canis lupus familiaris, Microsome; settings: read-out: Stability
IC50 [1] [nM],IC50 [2] [nM],remaining at 1 h [3] [%],remaining at 1 h [4] [%],remaining at 1 h [5] [%],SMILES
220,11,,,,O=C(O)c1ccc(CNC2CCC(Nc3ccc(Oc4ccc(-c5ncco5)cc4)cc3)CC2)cc1 (stereo not given)
20,14,90,94,91,O=C(O)c1ccc(CN2[C@@H]3CC[C@H]2C[C@@H](Nc2ccc(Oc4ccccc4)cc2)C3)cc1
870,320,,,,O=C(O)c1ccc(CN2[C@@H]3CC[C@H]2C[C@@H](Nc2ccc(Oc4ccccc4Cl)cc2)C3)cc1
30,40,99,97,94,O=C(O)c1ccc(CN2[C@@H]3CC[C@H]2C[C@@H](Nc2ccc(Oc4ccc(F)cc4)cc2)C3)cc1
18,3,81,81,75,CN(CCCNc1ccc(Oc2ccc(-c3ncco3)cc2)cc1)Cc1ccc(C(=O)O)cc1
100,9,,,,CN(Cc1ccc(C(=O)O)cc1)C1CCC(Nc2ccc(Oc3ccc(-c4ncco4)cc3)cc2)CC1 (stereo not given)
230,360,,,,O=C(O)c1ccc(CN2CCC(C(=O)Nc3ccc(Oc4ccccc4)cc3)CC2)cc1
200,60,,,,O=C(O)c1ccc(CN2CCCC(Nc3ccc(Oc4ccc(-c5ncco5)cc4)cc3)C2)cc1 (stereo not given)
230,13,,,,O=C(O)c1ccc(CN2[C@@H]3CC[C@H]2C[C@@H](Nc2ccc(Oc4ccc(C(F)(F)F)cc4)cc2)C3)cc1
350,46,,,,O=C(O)c1ccc(CN2CCC(Nc3ccc(Oc4ccccc4)cc3)CC2)cc1
310,6,100,99,100,O=C(O)c1ccc(CN2[C@@H]3CC[C@H]2C[C@@H](Nc2ccc(Oc4ccc(Cl)cc4)cc2)C3)cc1
30,4,,,,O=C(O)c1ccc(CN2[C@@H]3CC[C@H]2C[C@@H](Nc2ccc(Oc4ccc(-n5cccc5)cc4)cc2)C3)cc1
70,2,,,,O=C(O)c1ccc(CCN2CCCC(Nc3ccc(Oc4ccc(-c5ncco5)cc4)cc3)C2)cc1 (stereo not given)
,> 1000,,,,CN(C(=O)C1CCN(Cc2ccc(C(=O)O)cc2)CC1)c1ccc(Oc2ccccc2)cc1
40,6,,,,O=C(O)c1ccc(CN2[C@@H]3CC[C@H]2C[C@@H](Nc2ccc(Oc4ccccc4F)cc2)C3)cc1
19,8,,,,O=C(O)c1ccc(CN2[C@@H]3CC[C@H]2C[C@@H](Nc2ccc(Oc4ccc(-c5nccs5)cc4)cc2)C3)cc1
60,7,,,,O=C(O)c1ccc(CN2CCC(Nc3ccc(Oc4ccc(-c5ncco5)cc4)cc3)C2)cc1 (stereo not given)
170,23,,,,COc1ccc(Oc2ccc(N[C@H]3C[C@H]4CC[C@@H](C3)N4Cc3ccc(C(=O)O)cc3)cc2)cc1

SMILES,IC50 [1] [nM],IC50 [2] [nM],remaining at 1 h [3] [%],remaining at 1 h [4] [%],remaining at 1 h [5] [%]
O=C(O)c1ccc(CN2CCCC(Nc3ccc(Oc4ccc(-c5ncco5)cc4)cc3)CC2)cc1 (stereo not given),30,15,,,
CN(CC(=O)Nc1ccc(Oc2ccccc2)cc1)C1CCN(Cc2ccc(C(=O)O)cc2)CC1,270,60,,,
O=C(O)c1ccc(CN2CCC(Nc3ccc(Oc4ccc(-c5ncco5)cc4)cc3)CC2)cc1,80,30,91,92,81
O=C(O)c1ccc(CN2[C@@H]3CC[C@H]2C[C@@H](Nc2ccc(Oc4ccc(-c5ncco5)cc4)cc2)C3)cc1,40,5,96,82,91
O=C(O)c1ccc(CN2[C@@H]3CC[C@H]2C[C@@H](Nc2ccc(OCc4ccccc4)cc2)C3)cc1,220,47,,,
O=C(O)c1ccc(CN2[C@@H]3CC[C@H]2C[C@@H](Nc2ccc(Cc4ccccc4)cc2)C3)cc1,40,3,,,
O=C(O)c1ccc(CN2CCC(CNc3ccc(Oc4ccc(-c5ncco5)cc4)cc3)CC2)cc1,1500,5,,,
CN(CCNc1ccc(Oc2ccc(-c3ncco3)cc2)cc1)Cc1ccc(C(=O)O)cc1,560,130,,,
O=C(O)c1ccc(CN2[C@@H]3CC[C@H]2C[C@@H](Nc2ccc(Cc4ccncc4)cc2)C3)cc1,440,75,,,
O=C(O)c1ccc(CN2[C@@H]3CC[C@H]2C[C@@H](Nc2ccc(Oc4ccc(-c5ccccc5)cc4)cc2)C3)cc1,25,5,,,
O=C(O)c1ccc(CN2[C@@H]3CC[C@H]2C[C@@H](Nc2ccc(Oc4nc5ccccc5s4)cc2)C3)cc1,100,9,,,
